Tests used:
MJY-alpha monolayers = test: Incorporation of radiolabeled precursors; format: cell-based
Method: The metabolism of treated MJY-alpha mammary tumor cell cultures were screened by monitoring the uptake and incorporation of 3H-uridine, 3H-thymidine, and 35S-methionine. Cultures were treated as described and given radiolabeled precursors in treatment medium at 0-24 for 24 to 48 hours during the treatment periods.
Levels of radioactivity incorporated into the cells were determined following harvesting of the cells on glass filters using a Mash II cell harvester. Each sample was examined in quadruplicate.
In addition to determining cellular viability by trypan blue exclusion, the levels of metabolic activity of PTT.119-treated cells were compared to solvent-treated and untreated controls. Confluent MJY-alpha monolayers were again processed as previously described and […], […], ^3 H-thymidine, and ^35 S-methionine incorporation quantitated during the 24 and 48 hour treatment periods. Following 24 hour tripeptide treatment, the only parameter that was substantially depressed compared to control cultures was the incorporation of ^35 S-radioactivity into cells treated with 15 uM PTT.119 (Table 10).

[1] = system: L1210/L-PAM leukemia cells; parameters: species or system BDF1 mice; conditions: mouse, in vivo
[2] = system: L-1210 leukemia cell suspensions; test: Tumor cell survival (trypan blue), continuous exposure; format: cell-based, Mouse; conditions: for Percent Tumor Cell Survival / % tumor cell survival: L-1210; for Percent Tumor Cell Survival: treated 24 hr
[3] = system: B-16 melanoma cell layers; test: as above; format: cell-based, Mouse

CCOC(=O)[C@H](CCSC)NC(=O)[C@H](Cc1cccc(N(CCCl)CCCl)c1)NC(=O)[C@@H](N)Cc1ccc(F)cc1.Cl [PTT.119, 3-(p-fluorophenyl)-L-alanyl-3-[m-bis(2-chloroethyl)aminophenyl]-L-alanyl-L-methionine ethyl ester hydrochloride]
Relative level of incorporation of radiolabels (%) (MJY-alpha monolayers; 1.5 uM, 24 hours, 3H-thy): 91.2% | Relative level of incorporation of radiolabels (%) (MJY-alpha monolayers; 1.5 uM, 24 hours, 3H-ur): 90.9% | Relative level of incorporation of radiolabels (%) (MJY-alpha monolayers; 1.5 uM, 24 hours, 35S-met): 103.3% | Relative level of incorporation of radiolabels (%) (MJY-alpha monolayers; 1.5 uM, 48 hours, 3H-thy): 118.1% | Relative level of incorporation of radiolabels (%) (MJY-alpha monolayers; 1.5 uM, 48 hours, 3H-ur): 103.4% | Relative level of incorporation of radiolabels (%) (MJY-alpha monolayers; 1.5 uM, 48 hours, 35S-met): 96.1% | Relative level of incorporation of radiolabels (%) (MJY-alpha monolayers; 7.5 uM, 24 hours, 3H-thy): 99.0% | Relative level of incorporation of radiolabels (%) (MJY-alpha monolayers; 7.5 uM, 24 hours, 3H-ur): 100.6% | Relative level of incorporation of radiolabels (%) (MJY-alpha monolayers; 7.5 uM, 24 hours, 35S-met): 97.2% | Relative level of incorporation of radiolabels (%) (MJY-alpha monolayers; 7.5 uM, 48 hours, 3H-thy): 83.1% | Relative level of incorporation of radiolabels (%) (MJY-alpha monolayers; 7.5 uM, 48 hours, 3H-ur): 108.6% | Relative level of incorporation of radiolabels (%) (MJY-alpha monolayers; 7.5 uM, 48 hours, 35S-met): 89.9% | depression of 3H-thymidine incorporation (MJY-alpha monolayers; 7.5 uM, second day of treatment): 17% | Relative level of incorporation of radiolabels (%) (MJY-alpha monolayers; 15.0 uM, 24 hours, 3H-thy): 103.6% | Relative level of incorporation of radiolabels (%) (MJY-alpha monolayers; 15.0 uM, 24 hours, 3H-ur): 100.1% | Relative level of incorporation of radiolabels (%) (MJY-alpha monolayers; 15.0 uM, 24 hours, 35S-met): 82.7% | Relative level of incorporation of radiolabels (%) (MJY-alpha monolayers; 15.0 uM, 48 hours, 3H-thy): 82.9% | Relative level of incorporation of radiolabels (%) (MJY-alpha monolayers; 15.0 uM, 48 hours, 3H-ur): 80.5% | Relative level of incorporation of radiolabels (%) (MJY-alpha monolayers; 15.0 uM, 48 hours, 35S-met): 80.4% | reductions in levels of cell-associated radioactivity, all three precursors (MJY-alpha monolayers; 15 uM, second day of treatment): 20% | tumorigenicity of L1210/L-PAM cells [1]: Complete abrogation | cytotoxicity lower compared to untreated L1210 cells (L1210 leukemia cells): 20-30% | dose response curves of L1210, L1210-T1 and L1210-T2 (L1210 leukemia cells): no differences could be detected | viability in continuous treatment (L1210 leukemia cells): nonviable | viability of L1210-T1 in continuous treatment (L1210 leukemia cells): nonviable | Percent Tumor Cell Survival ([2]; 0.1 ug/ml): 82% | % tumor cell survival ([2]; 1 ug/ml, 1 hr exposure): 95% | % tumor cell survival ([2]; 1 ug/ml, 8 hr): 100% | % tumor cell survival ([2]; 1 ug/ml, 24 hr): 65% | Percent Tumor Cell Survival ([2]; 1 ug/ml): 70% | % tumor cell survival ([2]; 5 ug/ml, 1 hr): 100% | % tumor cell survival ([2]; 5 ug/ml, 4 hr): 84% | % tumor cell survival ([2]; 5 ug/ml, 24 hr): 57% | Percent Tumor Cell Survival ([2]; 5 ug/ml): 62% | % tumor cell survival ([2]; 10 ug/ml, 1 hr): 92% | % tumor cell survival ([2]; 10 ug/ml, 4 hr): 75% | % tumor cell survival ([2]; 10 ug/ml, 24 hr): 12% | Percent Tumor Cell Survival ([2]; 10 ug/ml): 28% | % tumor cell survival ([2]; 25 ug/ml, 1 hr): 50% | % tumor cell survival ([2]; 25 ug/ml, 4 hr): 25% | % tumor cell survival ([2]; 25 ug/ml, 8 hr): 15% | % tumor cell survival ([2]; 25 ug/ml, 24 hr): 0% | Percent Tumor Cell Survival ([2]; 25 ug/ml): 6% | decrease in leukemia cell survival ([2]; continuous 24 hr exposure, all concentrations tested (0.1 to 50 ug/ml)): 18-94% | % tumor cell survival ([3]; 5 ug/ml, 1 hr): 100% | % tumor cell survival ([3]; 5 ug/ml, 4 hr): 100% | % tumor cell survival ([3]; 5 ug/ml, 8 hr): 100% | % tumor cell survival ([3]; 5 ug/ml, 24 hr): 74% | % tumor cell survival ([3]; 10 ug/ml, 1 hr): 100% | % tumor cell survival ([3]; 10 ug/ml, 4 hr): 100% | % tumor cell survival ([3]; 10 ug/ml, 8 hr): 63% | % tumor cell survival ([3]; 10 ug/ml, 24 hr): 64% | % tumor cell survival ([3]; 25 ug/ml, 1 hr): 100% | % tumor cell survival ([3]; 25 ug/ml, 4 hr): 100% | % tumor cell survival ([3]; 25 ug/ml, 8 hr): 92% | % tumor cell survival ([3]; 25 ug/ml, 24 hr): 60% | % tumor cell survival ([3]; 50 ug/ml, 1 hr): 100% | % tumor cell survival ([3]; 50 ug/ml, 4 hr): 100% | % tumor cell survival ([3]; 50 ug/ml, 8 hr): 58% | % tumor cell survival ([3]; 50 ug/ml, 24 hr): 33%
